Source: PubChem BioAssay AID2060336 (Molecular Pharmacology Branch, DTP, NCI, 2025)

System: 958767-090-R-J1-PDC spheroid growth
Experiment: Anticancer human tumor 958767-090-R-J1-PDC patient-derived head and neck squamous carcinoma cell line growth inhibition [IpAb]
Details: spheroids with HUVEC and MSC; for IC50: curve of first compound; for viability, T/C: stronger effect = lower value
Outline: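 Multi-cell spheroids of 60% tumour cells, 25% HUVEC and 15% MSC in ultra-low-attachment U-bottom wells, treated with agents combined with ipatasertib or abemaciclib. Half-log ranges top out near clinical Cmax, or 10 microM when Cmax is unknown.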
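Note: spheroids exposed to agents for 7 days.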
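Throughout, for viability, T/C: 100% = DMSO vehicle control wells.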

Question: With `Cn1cnc2c(F)c(Nc3ccc(Br)cc3Cl)c(C(=O)NOCCO)cc21` + CCN1CCN(Cc2ccc(Nc3ncc(F)c(-c4cc(F)c5nc(C)n(C(C)C)c5c4)n3)nc2)CC1 as the compound, how does the IC50 (second compound 0.01 µM) read?
Answer: 29.3 nM

Question: What about the IC50 (second compound 0.0316 µM) of the same compound?
Answer: 27 nM

Question: What about the IC50 (second compound 0.1 µM) of the same compound?
Answer: 12.6 nM

Question: What about the IC50 (second compound 0.316 µM) of the same compound?
Answer: 9.64 nM

Question: And the IC50 (second compound 1 µM)?
Answer: 124 nM

Question: And the viability, T/C (second compound 0.01 µM, first compound 0.00949 µM)?
Answer: 71%

Question: What about the viability, T/C (second compound 0.01 µM, first compound 0.03 µM) of the same compound?
Answer: 49.4%

Question: And the viability, T/C (second compound 0.01 µM, first compound 0.0949 µM)?
Answer: 35.2%

Question: And the viability, T/C (second compound 0.01 µM, first compound 0.3 µM)?
Answer: 34.5%

Question: What about the viability, T/C (second compound 0.01 µM, first compound 0.949 µM) of the same compound?
Answer: 30%

Question: And the viability, T/C (second compound 0.01 µM, first compound 3 µM)?
Answer: 23.2%

Question: And the viability, T/C (second compound 0.0316 µM, first compound 0.00949 µM)?
Answer: 65%

Question: What about the viability, T/C (second compound 0.0316 µM, first compound 0.03 µM) of the same compound?
Answer: 47.7%

Question: What about the viability, T/C (second compound 0.0316 µM, first compound 0.0949 µM) of the same compound?
Answer: 36.9%

Question: And the viability, T/C (second compound 0.0316 µM, first compound 0.3 µM)?
Answer: 29.7%

Question: And the viability, T/C (second compound 0.0316 µM, first compound 0.949 µM)?
Answer: 29.3%

Question: What about the viability, T/C (second compound 0.0316 µM, first compound 3 µM) of the same compound?
Answer: 19.7%

Question: What about the viability, T/C (second compound 0.1 µM, first compound 0.00949 µM) of the same compound?
Answer: 53.1%

Question: What about the viability, T/C (second compound 0.1 µM, first compound 0.03 µM) of the same compound?
Answer: 41.9%

Question: What about the viability, T/C (second compound 0.1 µM, first compound 0.0949 µM) of the same compound?
Answer: 34.9%

Question: What about the viability, T/C (second compound 0.1 µM, first compound 0.3 µM) of the same compound?
Answer: 34.1%

Question: And the viability, T/C (second compound 0.1 µM, first compound 0.949 µM)?
Answer: 26.7%

Question: And the viability, T/C (second compound 0.1 µM, first compound 3 µM)?
Answer: 23.5%

Question: What about the viability, T/C (second compound 0.316 µM, first compound 0.00949 µM) of the same compound?
Answer: 51.9%

Question: What about the viability, T/C (second compound 0.316 µM, first compound 0.03 µM) of the same compound?
Answer: 41.9%

Question: And the viability, T/C (second compound 0.316 µM, first compound 0.0949 µM)?
Answer: 40.1%

Question: And the viability, T/C (second compound 0.316 µM, first compound 0.3 µM)?
Answer: 36.1%

Question: What about the viability, T/C (second compound 0.316 µM, first compound 0.949 µM) of the same compound?
Answer: 28%

Question: What about the viability, T/C (second compound 0.316 µM, first compound 3 µM) of the same compound?
Answer: 21.2%

Question: And the viability, T/C (second compound 1 µM, first compound 0.00949 µM)?
Answer: 69.3%

Question: And the viability, T/C (second compound 1 µM, first compound 0.03 µM)?
Answer: 67.2%

Question: And the viability, T/C (second compound 1 µM, first compound 0.0949 µM)?
Answer: 51.9%

Question: And the viability, T/C (second compound 1 µM, first compound 0.3 µM)?
Answer: 42.8%

Question: What about the viability, T/C (second compound 1 µM, first compound 0.949 µM) of the same compound?
Answer: 44.5%

Question: What about the viability, T/C (second compound 1 µM, first compound 3 µM) of the same compound?
Answer: 37%

Question: How did the IC50 (second compound 0.01 µM) turn out when `Cn1ncnc1[C@H]1c2n[nH]c(=O)c3cc(F)cc(c23)N[C@@H]1c1ccc(F)cc1` + CCN1CCN(Cc2ccc(Nc3ncc(F)c(-c4cc(F)c5nc(C)n(C(C)C)c5c4)n3)nc2)CC1 was run?
Answer: > 100 nM

Question: And the IC50 (second compound 0.0316 µM)?
Answer: > 100 nM

Question: What about the IC50 (second compound 0.1 µM) of the same compound?
Answer: > 100 nM

Question: And the IC50 (second compound 0.316 µM)?
Answer: 32.2 nM

Question: And the IC50 (second compound 1 µM)?
Answer: > 100 nM

Question: And the viability, T/C (second compound 0.01 µM, first compound 0.000316 µM)?
Answer: 90.1%

Question: And the viability, T/C (second compound 0.01 µM, first compound 0.001 µM)?
Answer: 93.3%

Question: And the viability, T/C (second compound 0.01 µM, first compound 0.00316 µM)?
Answer: 66.3%

Question: And the viability, T/C (second compound 0.01 µM, first compound 0.01 µM)?
Answer: 84%

Question: What about the viability, T/C (second compound 0.01 µM, first compound 0.0316 µM) of the same compound?
Answer: 75%

Question: And the viability, T/C (second compound 0.01 µM, first compound 0.1 µM)?
Answer: 66%

Question: And the viability, T/C (second compound 0.0316 µM, first compound 0.000316 µM)?
Answer: 83.6%

Question: And the viability, T/C (second compound 0.0316 µM, first compound 0.001 µM)?
Answer: 75.1%

Question: What about the viability, T/C (second compound 0.0316 µM, first compound 0.00316 µM) of the same compound?
Answer: 67.8%

Question: And the viability, T/C (second compound 0.0316 µM, first compound 0.01 µM)?
Answer: 46.2%

Question: And the viability, T/C (second compound 0.0316 µM, first compound 0.0316 µM)?
Answer: 52.8%

Question: And the viability, T/C (second compound 0.0316 µM, first compound 0.1 µM)?
Answer: 67.4%

Question: What about the viability, T/C (second compound 0.1 µM, first compound 0.000316 µM) of the same compound?
Answer: 68.8%

Question: And the viability, T/C (second compound 0.1 µM, first compound 0.001 µM)?
Answer: 64.6%

Question: What about the viability, T/C (second compound 0.1 µM, first compound 0.00316 µM) of the same compound?
Answer: 60.8%

Question: And the viability, T/C (second compound 0.1 µM, first compound 0.01 µM)?
Answer: 56.6%

Question: And the viability, T/C (second compound 0.1 µM, first compound 0.0316 µM)?
Answer: 50.2%

Question: And the viability, T/C (second compound 0.1 µM, first compound 0.1 µM)?
Answer: 59.4%

Question: What about the viability, T/C (second compound 0.316 µM, first compound 0.000316 µM) of the same compound?
Answer: 59.2%

Question: And the viability, T/C (second compound 0.316 µM, first compound 0.001 µM)?
Answer: 53.8%

Question: And the viability, T/C (second compound 0.316 µM, first compound 0.00316 µM)?
Answer: 49.3%

Question: And the viability, T/C (second compound 0.316 µM, first compound 0.01 µM)?
Answer: 54%

Question: What about the viability, T/C (second compound 0.316 µM, first compound 0.0316 µM) of the same compound?
Answer: 56.8%

Question: And the viability, T/C (second compound 0.316 µM, first compound 0.1 µM)?
Answer: 43.4%

Question: And the viability, T/C (second compound 1 µM, first compound 0.000316 µM)?
Answer: 70.8%

Question: What about the viability, T/C (second compound 1 µM, first compound 0.001 µM) of the same compound?
Answer: 73.7%

Question: And the viability, T/C (second compound 1 µM, first compound 0.00316 µM)?
Answer: 70.5%

Question: And the viability, T/C (second compound 1 µM, first compound 0.01 µM)?
Answer: 60.2%

Question: What about the viability, T/C (second compound 1 µM, first compound 0.0316 µM) of the same compound?
Answer: 56.6%

Question: What about the viability, T/C (second compound 1 µM, first compound 0.1 µM) of the same compound?
Answer: 58.2%
